In patent EP0252983B1, “SALTS OF N-(VINYLOXIETHYL)DITHIOCARBAMIC ACID, METHOD OF OBTAINING THEREOF AND […] ON THEM” (priority 1985, dated 1987):

Key:
Micrococcus = test: Bactericidal activity on agar (concentration of complete growth inhibition); type: cell-based; details: % bezogen auf den Wirkstoff; am 5. Tag
Description: (§1) Geprüft wird die bakterizide Aktivität von Kalium-, Natrium-, Zink- und Kupfersalzen der N-(Vinyloxyäthyl)dithiocarbamidsäure gegen Bakterien der Gattungen Bacillus, Micrococcus, Pseudomonas, Escherichia und Xantomonas.
(§2) Man stellt wäßrige Stofflösungen verschiedener Konzentration her, die so berechnet werden, daß die Stoffkonzentration in der Petri-Schale bei der Gabe von 1 ml Lösung in das geschmolzene Nährmedium (45 bis 50 °C) zwischen 0,003 und 25 % (bezogen auf den Wirkstoff) schwankt. Nach 18 bis 24 Stunden bringt man auf die Oberfläche des Nährmediums 0,1 ml wäßrige Suspension eintägiger reiner Kulturen von Bakterien auf und verteilt sie gleichmäßig. In Kontrollschalen verteilt sich 0,1 ml Wasser über die Oberfläche des Nährmediums. Die Inkubation erfolgt bei 37 °C innerhalb von 5 Tagen. Die Wirksamkeit der Stoffe wird nach dem Auftreten des Bakterienwachstums auf der Oberfläche des Nährmediums eingeschätzt. Die Prüfergebnisse sind in der Tabelle 13 dargestellt.

Escherichia = test: as above; type: cell-based; details: % bezogen auf den Wirkstoff; am 5. Tag
Description: as §1, §2

Bacillus = test: as above; type: cell-based; details: % bezogen auf den Wirkstoff; am 5. Tag
Description: as §1, §2

Pseudomonas = test: as above; type: cell-based; details: % bezogen auf den Wirkstoff; am 5. Tag
Description: as §1, §2

Geotrichum candidum Link = test: Mycelial growth inhibition on agar (contact activity); type: cell-based; details: Würzeagar
Description: (§3) Die Prüfungen werden nach dem Verfahren zur Ermittlung der Kontaktaktivität durchgeführt. Man verwendet das in Wasser gelöste Kalium-N-(vinyloxyäthyl)dithiocarbamat, führt es in ein Nährmedium ein und vergießt auf Petri-Schalen. Nach 24 Stunden wird mit Pilzmyzelium nach einem Stichverfahren geimpft. Dann temperiert man die Schalen innerhalb von 5 Tagen bei einer zwischen 24 und 26 °C liegenden Temperatur und mißt den Durchmesser von Pilzkolonien, ermittelt den Prozentsatz der Hemmung des Myzelwachstums (S) ausgehend von Angaben am 5. Tag nach der Abbott-Formel [drawing 13] worin dc für den Durchmesser der Pilzkolonien, de für den Durchmesser von Pilzkolonien in der Schale stehen, wo ein die zu prüfenden Stoffe enthaltendes Medium vorhanden ist. Dieses Verfahren zur Ermittlung der mikrobiologischen Aktivität ist in anderen Beispielen verwendet.
(§4) Die Pilzkulturen werden auf Würzeagar gezüchtet. Ergebnisse, erhalten bei der Prüfung der fungiziden Aktivität gegen reine Kulturen von Mikroorganismen, welche Bioschädigungen hervorrufen, sind in der Tabelle 1 dargestellt.

Acremonium cowum = test: as above; type: cell-based; details: Würzeagar
Description: as §3, §4

Cladosporium resinae = test: as above; type: cell-based; details: Würzeagar
Description: as §3, §4

Penicillium charlesii = test: as above; type: cell-based; details: Würzeagar
Description: as §3, §4

Oidium Sp. = test: as above; type: cell-based; details: Würzeagar
Description: as §3, §4

Acremonium charticola = test: as above; type: cell-based; details: Würzeagar
Description: as §3, §4

[1] = tested on: Cladosporium cladosporioides; test: as above; type: cell-based; details: Würzeagar
Description: as §3, §4

Walrotiela subiculesa = test: as above; type: cell-based; details: Würzeagar
Description: as §3, §4

Penicillium chrysogenum = test: as above; type: cell-based; details: Würzeagar
Description: as §3, §4

Rhizoctonia solani = test: as above; type: cell-based; details: Wirkstoffkonzentration 0,003 %; Würzeagar; Tabelle 7
Description: as §3
Die fungizide Aktivität von Zink-bis-(N-vinyloxyäthyldithiocarbamat) gegen reine Kulturen von Pilzen Fusarium moniliforme, Fusarium sambucinum, Aspergillus niger, Rhizoctonia solani, Cladosporium resinae, Cladosporium cladosporioides, Acremonium cowum, Acremonium charticola, Penicillium chrysogenum, Penicillium charlesii Smith, Penicillium funiculosum, Geotrichum candidum Link, Walrotiela subiculesa, Oidium sp., Paecilomyces varioti, Stereum hirsutum wird gemäß Beispiel 8 untersucht.
(§5) Als Nährmedium dient Würzeagar.

Wurzelfäule von Gurken = test: Cucumber root rot test in treated non-sterile soil; type: in vivo
Excerpt: Man nimmt 100 g unsterilen Boden, enthaltend 1 Teil Humus, 1 Teil Rasenboden, 1 Teil Sand, gibt darin ein Präparat, das Zink-bis-(N-vinyloxyäthyldithiocarbamat) ausgehend von 200 kg/ha Wirkstoff enthält.
Das Präparat wird wie folgt hergestellt: Einer gesättigten Lösung des genannten Salzes in Azeton gibt man einige Tropfen Emulgiermittel (hydroxyäthylierte Alkylphenole) zu und verdünnt mit Wasser. Innerhalb von 7 bis 8 Tagen begießt man dann bodenhaltige Gefäße mit Wasser, bis der Boden in einen Zustand gebracht wird, der 60% der vollen Wasseraufnahmekapazität des Feldes beträgt. Nach dieser Zeit erfolgt die Aussaat von Gurkensamen, eingequollen im voraus in einer 0,1%igen KMn04-Lösung innerhalb von 2 Stunden. In jedes Gefäß werden je 10 Samen auf eine Tiefe von 1 bis 1,5 cm gesät. Nach 7 bis 9 Tagen berücksichtigt man die Keimungsfähigkeit von Samen, dann bestimmt man nach 3 Tagen den Befallumfang von Pflanzen durch Wurzelfäule, hervorgerufen durch einen Erregerkomplex. Die Versuche werden viermal wiederholt, als Vergleichsmuster dient Milon. Die Prüfergebnisse zeigt Tabelle 9.

[2] = Solubility in water (descriptive); type: physicochemical
Sphaeropsis malorum = test: Mycelial growth inhibition on agar (contact activity); type: cell-based; details: Wirkstoffkonzentration 0,003 %; Würzeagar; Tabelle 7
Description: as §3, §5

Larven von Fichtenböcken = test: Insecticidal activity, topical application to larvae; type: in vivo, Fichtenböcke; details: 10%ige Lösung
Excerpt: Die hohe insektizide Aktivität von Kalium-N-(vinyloxyathyl)dithiocarbamat und Zink-bis-(N-vinyloxyathyl- dithiocarbamat) wurde in Versuchen an Larven von Fichtenböcken nachgewiesen. Geprüft wurden die 10%igen wäßrigen (oder alkoholischen) Lösungen, welche auf die Kopfbrust von Larven aufgebracht wurden. In Versuchen standen je 20 Larven zur Verfügung. Die Versuche wurden dreimal wiederholt. Die Mortalität wurde nach 1, 24 und 48 Stunden ermittelt. Die insektizide Aktivität der erfindungsgemäßen Stoffe ist bedeutend höher als die von Chlorophos.
Die Prüfungen auf insektizide Aktivität werden an Larven von Fichtenböcken durchgeführt. Geprüft werden eine 10%ige wäßrige Lösung von Kalium-N-(vinyloxyäthyl)dithiocarbamat und eine 10%ige alkoholische Lösung von Zink-bis-N-(vinyloxyathyldithiocarbamat). In jedem Versuch stehen je 20 Larven zur Verfügung. Die Mortalität wird nach 1, 24 und 48 Stunden ermittelt. Die zu prüfenden Lösungen werden auf die Kopfbrust von Larven aufgebracht.

[3] = Acute toxicity (LD50) in mice; type: in vivo, weißen Mäusen; details: perorale Applikation an weißen Mäusen
Stereum hirsutum = test: Mycelial growth inhibition on agar (contact activity); type: cell-based; details: Wirkstoffkonzentration 0,003 %; Würzeagar; Tabelle 8
Description: as §3

Penicillium funiculosum = test: as above; type: cell-based; details: Wirkstoffkonzentration 0,003 %; Würzeagar; Tabelle 8
Description: as §3

Paecilomyces varioti = test: as above; type: cell-based; details: Wirkstoffkonzentration 0,003 %; Würzeagar; Tabelle 8
Description: as §3

Aspergillus niger = test: as above; type: cell-based; details: Wirkstoffkonzentration 0,003 %, Würzeagar
Fusarium moniliforme = test: as above; type: cell-based; details: Wirkstoffkonzentration 0,003 %; Würzeagar; Tabelle 7
Description: as §3
(§6) Tabelle 2 zeigt die Angaben für die fungizide Aktivität von Kalium-N-(vinyloxyäthyl)dithiocarbamat und bekannten wirksamen Fungiziden Poly arbazin und TMTD. Der zu prüfende Stoff wurde im Laufe der Versuche in Wasser aufgelöst, und die Kulturen wurden auf einem Kartoffel-Glukose-Nährmedium gezüchtet.

Fusarium sambucinum = test: as above; type: cell-based; details: Wirkstoffkonzentration 0,003 %; Würzeagar; Tabelle 7
Description: as §3, §6

Question: With “Zink-bis-(N-vinyloxyäthyldithiocarbamat)” as the substance, how does the “Konzentrationen, welche das Bakterienwachstum völlig (100 %) hemmen” value (“Konzentrationen … (100 %) hemmen” below) (Micrococcus) read?
Answer: 0,05%

Question: And the “Konzentrationen … (100 %) hemmen” value (Escherichia)?
Answer: 0,05%

Question: What about the “Konzentrationen … (100 %) hemmen” value (Bacillus) of the same substance?
Answer: 0,05%

Question: And the “Konzentrationen … (100 %) hemmen” value (Pseudomonas)?
Answer: 0,05%

Question: What about the Myzelhemmung in % (Geotrichum candidum Link; Präparatkonzentration 0,0015 %) of the same substance?
Answer: 29%

Question: And the Myzelhemmung in % (Geotrichum candidum Link; Präparatkonzentration 0,003 %)?
Answer: 100%

Question: What about the Myzelhemmung in % (Geotrichum candidum Link; Präparatkonzentration 0,006 %) of the same substance?
Answer: 100%

Question: And the Myzelhemmung in % (Geotrichum candidum Link; Präparatkonzentration 0,012 %)?
Answer: 100%

Question: And the Myzelhemmung in % (Acremonium cowum; Präparatkonzentration 0,0015 %)?
Answer: 40%

Question: What about the Myzelhemmung in % (Acremonium cowum; Präparatkonzentration 0,003 %) of the same substance?
Answer: 100%

Question: And the Myzelhemmung in % (Acremonium cowum; Präparatkonzentration 0,006 %)?
Answer: 100%

Question: What about the Myzelhemmung in % (Acremonium cowum; Präparatkonzentration 0,012 %) of the same substance?
Answer: 100%

Question: What about the Myzelhemmung in % (Cladosporium resinae; Präparatkonzentration 0,0015 %) of the same substance?
Answer: 37,5%

Question: What about the Myzelhemmung in % (Cladosporium resinae; Präparatkonzentration 0,003 %) of the same substance?
Answer: 100%

Question: And the Myzelhemmung in % (Cladosporium resinae; Präparatkonzentration 0,006 %)?
Answer: 100%

Question: What about the Myzelhemmung in % (Cladosporium resinae; Präparatkonzentration 0,012 %) of the same substance?
Answer: 100%

Question: What about the Myzelhemmung in % (Penicillium charlesii; Präparatkonzentration 0,0015 %) of the same substance?
Answer: 90%

Question: What about the Myzelhemmung in % (Penicillium charlesii; Präparatkonzentration 0,003 %) of the same substance?
Answer: 100%

Question: And the Myzelhemmung in % (Penicillium charlesii; Präparatkonzentration 0,006 %)?
Answer: 100%

Question: And the Myzelhemmung in % (Penicillium charlesii; Präparatkonzentration 0,012 %)?
Answer: 100%

Question: What about the Myzelhemmung in % (Oidium Sp.; Präparatkonzentration 0,0015 %) of the same substance?
Answer: 80%

Question: What about the Myzelhemmung in % (Oidium Sp.; Präparatkonzentration 0,003 %) of the same substance?
Answer: 100%

Question: What about the Myzelhemmung in % (Oidium Sp.; Präparatkonzentration 0,006 %) of the same substance?
Answer: 100%

Question: What about the Myzelhemmung in % (Oidium Sp.; Präparatkonzentration 0,012 %) of the same substance?
Answer: 100%

Question: And the Myzelhemmung in % (Acremonium charticola; Präparatkonzentration 0,0015 %)?
Answer: 50%

Question: What about the Myzelhemmung in % (Acremonium charticola; Präparatkonzentration 0,003 %) of the same substance?
Answer: 100%

Question: And the Myzelhemmung in % (Acremonium charticola; Präparatkonzentration 0,006 %)?
Answer: 100%

Question: What about the Myzelhemmung in % (Acremonium charticola; Präparatkonzentration 0,012 %) of the same substance?
Answer: 100%

Question: What about the Myzelhemmung in % ([1]; Präparatkonzentration 0,0015 %) of the same substance?
Answer: 100%

Question: And the Myzelhemmung in % ([1]; Präparatkonzentration 0,003 %)?
Answer: 100%

Question: What about the Myzelhemmung in % ([1]; Präparatkonzentration 0,006 %) of the same substance?
Answer: 100%

Question: And the Myzelhemmung in % ([1]; Präparatkonzentration 0,012 %)?
Answer: 100%

Question: And the Myzelhemmung in % (Walrotiela subiculesa; Präparatkonzentration 0,0015 %)?
Answer: 52%

Question: What about the Myzelhemmung in % (Walrotiela subiculesa; Präparatkonzentration 0,003 %) of the same substance?
Answer: 100%

Question: And the Myzelhemmung in % (Walrotiela subiculesa; Präparatkonzentration 0,006 %)?
Answer: 100%

Question: And the Myzelhemmung in % (Walrotiela subiculesa; Präparatkonzentration 0,012 %)?
Answer: 100%

Question: What about the Myzelhemmung in % (Penicillium chrysogenum; Präparatkonzentration 0,0015 %) of the same substance?
Answer: 10%

Question: And the Myzelhemmung in % (Penicillium chrysogenum; Präparatkonzentration 0,003 %)?
Answer: 40%

Question: And the Myzelhemmung in % (Penicillium chrysogenum; Präparatkonzentration 0,006 %)?
Answer: 80%

Question: What about the Myzelhemmung in % (Penicillium chrysogenum; Präparatkonzentration 0,012 %) of the same substance?
Answer: 100%

Question: And the Myzelhemmung in % (Rhizoctonia solani)?
Answer: 100%

Question: What about the “Entwicklung von Wurzelschimmel vermindert sich gegenüber Kontrolle” value (Wurzelfäule von Gurken; Aufzucht von Gurken) of the same substance?
Answer: Ilfache

Question: What about the “Samenkeimung steigt gegenüber Kontrolle” value (Wurzelfäule von Gurken; Aufzucht von Gurken) of the same substance?
Answer: 11%

Question: And the “Samenkeimung steigt gegenüber Milon (Vergleichmuster)” value (Wurzelfäule von Gurken; Aufzucht von Gurken)?
Answer: 15%

Question: And the Keimungshäufigkeit in % (Wurzelfäule von Gurken; Gurkensamen, 200 kg/ha Wirkstoff)?
Answer: 85,1%

Question: What about the “Entwicklung von Krankheiten in %” value (Wurzelfäule von Gurken; Wurzelfäule von Gurken, 200 kg/ha Wirkstoff) of the same substance?
Answer: 4,0%

Question: And the “Löslichkeit in Wasser” value [2]?
Answer: wasserunlöslich

Question: What about the Myzelhemmung in % (Sphaeropsis malorum) of the same substance?
Answer: 100%

Question: And the “Mortalität von Larven der Fichtenböcke” value (Larven von Fichtenböcken; Wirkungsdauer 1 Stunde)?
Answer: 10%

Question: And the “Mortalität von Larven der Fichtenböcke” value (Larven von Fichtenböcken; Wirkungsdauer 24 Stunden)?
Answer: 88%

Question: And the “Mortalität von Larven der Fichtenböcke” value (Larven von Fichtenböcken; Wirkungsdauer 48 Stunden)?
Answer: 100%

Question: What about the LD50 [3] of the same substance?
Answer: 1120 ± 266 mg/kg

Question: And the Myzelhemmung in % (Stereum hirsutum)?
Answer: 100%

Question: What about the Myzelhemmung in % (Penicillium funiculosum) of the same substance?
Answer: 100%

Question: And the Myzelhemmung in % (Paecilomyces varioti)?
Answer: 100%

Question: And the Myzelhemmung in % (Aspergillus niger; Tabelle 7)?
Answer: 90%

Question: And the Myzelhemmung in % (Aspergillus niger; Tabelle 8)?
Answer: 90%

Question: And the Myzelhemmung in % (Fusarium moniliforme)?
Answer: 100%

Question: And the Myzelhemmung in % (Fusarium sambucinum)?
Answer: 100%
